For the experiment, the system named is HCV 1b genotype replicon. Put plainly: HCV genotype-1b replicon assay (qRT-PCR or luciferase). The experiment is classed as cell-based. The settings on record: Hepatitis C virus; HCV 1b replicon cell line (SGR 11-7 or Huh-luc/neo-ET); qRT-PCR or luciferase readout; read-out: Genotype-1b replicon EC50 Range. From the text:
HCV replicon cell lines (kindly provided by R. Bartenschlager) isolated from colonies as described by Lohman et. al. (Lohman et al. (1999) Science 285: 110-113, expressly incorporated by reference in its entirety) and used for all experiments. The HCV replicon has the nucleic acid sequence set forth in EMBL Accession No.: AJ242651, the coding sequence of which is from nucleotides 1801 to 8406.
The coding sequence of the published HCV replicon was synthesized and subsequently assembled in a modified plasmid pBR322 (Promega, Madison, Wis.) using standard molecular biology techniques. One replicon cell line (“SGR 11-7”) stably expresses HCV replicon RNA which consists of (i) the HCV 5′UTR fused to the first 12 amino acids of the capsid protein, (ii) the neomycin phosphotransferase gene (neo), (iii) the IRES from encephalomyocarditis virus (EMCV), and (iv) HCV NS2 to NS5B genes and the HCV 3′UTR. Another replicon cell line (“Huh-luc/neo-ET”) described by Vrolijk et. al. (Vrolijk et. al. (2003) Journal of Virological Methods 110:201-209, expressly incorporated by reference in its entirety) stably expresses HCV replicon RNA which consists of (i) the HCV 5′UTR fused to the first 12 amino acids of the capsid protein, (ii) the firefly luciferase reporter gene, (iii) the ubiquitin gene, (iv) the neomycin phosphotransferase gene (neo), (v) the IRES from encephalomyocarditis virus (EMCV), and (vi) HCV NS3 to NS5B genes that harbor cell culture adaptive mutations (E1202G, T12801, K1846T) and the HCV 3′UTR.
These cell lines were maintained at 37° C., 5% CO2, 100% relative humidity in DMEM (Cat#11965-084, Invitrogen), with 10% fetal calf serum (“FCS”, Invitrogen), 1% non-essential amino acids (Invitrogen), 1% of Glutamax (Invitrogen), 1% of 100× penicillin/streptomycin (Cat#15140-122, Invitrogen) and Geneticin (Cat#10131-027, Invitrogen) at 0.75 mg/ml or 0.5 mg/ml for 11-7 and Huh-luc/neo-ET cells, respectively.
EC50 values of single agent compounds and combinations were determined by HCV RNA detection using quantitative RT-PCR, according to the manufacturer's instructions, with a TAQMAN® One-Step RT-PCR Master Mix Reagents Kit (Cat# AB 4309169, Applied Biosystems) on an ABI Model 7500 thermocycler. The TaqMan primers used for detecting and quantifying HCV RNA were obtained from Integrated DNA Technologies. HCV RNA was normalized to GAPDH RNA levels in drug-treated cells, which was detected and quantified using the Human GAPDH Endogenous Control Mix (Applied Biosystems, AB 4310884E). Total cellular RNA was purified from 96-well plates using the RNAqueous 96 kit (Ambion, Cat# AM1812). Chemical agent cytotoxicity was evaluated using an MTS assay according to the manufacturer's directions (Promega).
Since clinical drug resistance often develops in viral infections following single agent therapies, there is a need to assess the additive, antagonistic, or synergistic properties of combination therapies. We use the HCV replicon system to assess the potential use of the compound of the present invention or in combination therapies with Interferon alpha, cyclosporine analogs and inhibitors targeting other HCV proteins. The acute effects of a single or combinations of drugs are studied in the “Huh-luc/neo-ET” replicon with each chemical agent titrated in an X or Y direction in a 6 point two-fold dilution curve centered around the EC50 of each drug. Briefly, replicon cells are seeded at 7,000 cells per well in 90 ul DMEM (without phenol red, Invitrogen Cat.#31053-036) per well with 10% FCS, 1% non-essential amino acids, 1% of Glutamax and 1% of 1 OOX penicillin/streptomycin and incubated overnight at 37° C., 5% CO2, 100% relative humidity. […]
In general terms: In antiviral work, replicon cells carry a viral genome segment that copies itself.

Each structure is given as a SMILES string.

As a reminder, the EC50 is the concentration at which the effect is half-maximal.

As for `COC(=O)N[C@H](C(=O)N1CCC[C@H]1c1ncc(-c2ccc(-c3ccc(-c4cnc([C@@H]5[C@H]6CC[C@H](C6)N5C(=O)[C@@H](NC(=O)OC)C(C)C)[nH]4)cc3)cc2)[nH]1)C(C)C` [Example 83], the EC50 is less than 1 nM. In the case of `COC(=O)N[C@H](C(=O)N1CCC[C@H]1c1ncc(-c2ccc(-c3ccc(-c4cnc([C@H]5[C@@H]6CC[C@@H](C6)N5C(=O)[C@@H](NC(=O)OC)C(C)C)[nH]4)cc3)cc2)[nH]1)C(C)C` [Example 246], the EC50 is less than 1 nM. The figure for `COC(=O)N[C@H](C(=O)N1CCC[C@H]1c1nc2cc(C#Cc3ccc(-c4cnc([C@@H]5[C@H]6CC[C@H](C6)N5C(=O)[C@@H](NC(=O)OC)C(C)C)[nH]4)cc3)ccc2[nH]1)C(C)C` [Example 319] is less than 1 nM. With `COC(=O)N[C@H](C(=O)N1CCC[C@H]1c1nc(-c2ccc(C#Cc3ccc4[nH]c([C@@H]5[C@H]6CC[C@H](C6)N5C(=O)[C@@H](NC(=O)OC)C(C)C)nc4c3)cc2)c[nH]1)C(C)C` [Example 338], the EC50 is less than 1 nM.

Turning to `COC(=O)N[C@H](C(=O)N1CCC[C@H]1c1nc(-c2ccc(C#Cc3ccc4[nH]c([C@@H]5C6CCC(CC6)N5C(=O)[C@@H](NC(=O)OC)C(C)C)nc4c3)cc2)c[nH]1)C(C)C` [Example 344], the EC50 was less than 1 nM. Turning to `COC(=O)N[C@H](C(=O)N1[C@@H]2CC[C@@H](C2)[C@H]1c1ncc(-c2ccc(C#Cc3ccc4[nH]c([C@@H]5[C@H]6CC[C@H](C6)N5C(=O)[C@@H](NC(=O)OC)C(C)C)nc4c3)cc2)[nH]1)C(C)C` [Example 346], the EC50 is less than 1 nM. As to `COC(=O)N[C@H](C(=O)N1CCC[C@H]1c1nc(-c2ccc(-c3ccc(-c4ccc5[nH]c([C@@H]6[C@H]7CC[C@H](C7)N6C(=O)[C@@H](NC(=O)OC)C(C)C)nc5c4)cc3)cc2)c[nH]1)C(C)C` [Example 348], the EC50 was less than 1 nM. Take `COC(=O)N[C@H](C(=O)N1CCC[C@H]1c1nc(-c2ccc3cc(-c4ccc5[nH]c([C@@H]6[C@H]7CC[C@H](C7)N6C(=O)[C@@H](NC(=O)OC)C(C)C)nc5c4)ccc3c2)c[nH]1)C(C)C` [Example 350]: the EC50 is less than 1 nM.

For the origin of these results see US9156818B2, “Hepatitis C virus inhibitors” (Enanta Pharmaceuticals, Inc., priority 2009, dated 2015).
